Reference: US8735388B2, “Heterocyclic compounds with affinity to muscarinic receptors” (Abbvie B. V. A., priority 2007, dated 2014)
Where two headings read alike, the source gives them in different places.

Assays:
[1] = biological target: T1, Muscarine M1 (GPCR-A-MA-ACH M1) (Homo sapiens, UniProt P11229); test: Muscarine M1 receptor binding, 3H-Pirenzepine; details: human M1, CHO cells, ligand 2 nM, 60 min/22° C., read-out: RB Musc. M1 3H-Pirenzepine pKi (converted)
T1 construct: expressed in transfected cells; host or cells: CHO cells
T1 sequence (P11229 1-460): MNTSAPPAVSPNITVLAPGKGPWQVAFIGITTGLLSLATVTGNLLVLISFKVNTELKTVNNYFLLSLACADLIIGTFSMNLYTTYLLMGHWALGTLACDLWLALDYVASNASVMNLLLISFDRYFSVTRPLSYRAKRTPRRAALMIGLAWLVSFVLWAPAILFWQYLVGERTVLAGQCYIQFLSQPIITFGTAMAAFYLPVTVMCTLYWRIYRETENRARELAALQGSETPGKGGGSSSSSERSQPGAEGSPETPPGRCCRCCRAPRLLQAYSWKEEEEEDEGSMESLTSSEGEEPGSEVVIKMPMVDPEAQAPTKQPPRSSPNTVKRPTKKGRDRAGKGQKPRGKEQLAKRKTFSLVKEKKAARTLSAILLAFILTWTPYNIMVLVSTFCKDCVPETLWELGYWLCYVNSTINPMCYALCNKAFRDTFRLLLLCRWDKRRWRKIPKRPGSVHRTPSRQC
Method in brief: (§1)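 Human M1 ([3H]-pirenzepine), M3, and M4 ([3H]-4DAMP or [3H]-oxotremorine) receptor preparations incubated with radioligand and compound, first at 10 μM, then at 10-fold lower concentrations if inhibition exceeded 40%. Bound ligand separated by glass-fibre filtration and counted by scintillation. IC50 from Hill fit, converted to Ki via Cheng-Prusoff, reported as pKi.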

[2] = biological target: T2, Muscarine M2 (GPCR-A-MA-ACH M2) (Homo sapiens, UniProt P08172); test: Muscarine M2 receptor binding; details: human M2, CHO cells; receptor binding
T2 construct: expressed in transfected cells; host or cells: CHO cells
T2 sequence (P08172 1-466): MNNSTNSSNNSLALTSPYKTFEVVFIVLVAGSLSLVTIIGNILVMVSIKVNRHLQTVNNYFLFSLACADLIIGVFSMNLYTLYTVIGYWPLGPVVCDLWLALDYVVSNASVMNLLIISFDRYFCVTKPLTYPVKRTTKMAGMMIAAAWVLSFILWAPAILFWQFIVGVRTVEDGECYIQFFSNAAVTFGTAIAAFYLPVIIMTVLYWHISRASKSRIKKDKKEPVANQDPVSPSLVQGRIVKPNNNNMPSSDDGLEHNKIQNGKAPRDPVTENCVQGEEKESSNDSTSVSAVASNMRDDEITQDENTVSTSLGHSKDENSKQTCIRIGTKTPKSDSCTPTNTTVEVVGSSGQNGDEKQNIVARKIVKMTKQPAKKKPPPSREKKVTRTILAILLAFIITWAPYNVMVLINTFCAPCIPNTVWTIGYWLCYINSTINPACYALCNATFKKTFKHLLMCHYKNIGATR

[3] = biological target: T3, Muscarine M2 (GPCR-A-MA-ACH M2) (Cavia porcellus, UniProt H0VRN8); test: Muscarine M2 functional assay, isolated organ (left atrium, electrically paced), agonist and antagonist mode; set-up: species or system Guinea Pig; details: for EC50: read-out: Cell funct. Musc. M2 Agonism pEC50 (converted)
T3 construct: from tissue; host or cells: guinea pig left atrium (electrically paced)
T3 sequence (H0VRN8 1-466): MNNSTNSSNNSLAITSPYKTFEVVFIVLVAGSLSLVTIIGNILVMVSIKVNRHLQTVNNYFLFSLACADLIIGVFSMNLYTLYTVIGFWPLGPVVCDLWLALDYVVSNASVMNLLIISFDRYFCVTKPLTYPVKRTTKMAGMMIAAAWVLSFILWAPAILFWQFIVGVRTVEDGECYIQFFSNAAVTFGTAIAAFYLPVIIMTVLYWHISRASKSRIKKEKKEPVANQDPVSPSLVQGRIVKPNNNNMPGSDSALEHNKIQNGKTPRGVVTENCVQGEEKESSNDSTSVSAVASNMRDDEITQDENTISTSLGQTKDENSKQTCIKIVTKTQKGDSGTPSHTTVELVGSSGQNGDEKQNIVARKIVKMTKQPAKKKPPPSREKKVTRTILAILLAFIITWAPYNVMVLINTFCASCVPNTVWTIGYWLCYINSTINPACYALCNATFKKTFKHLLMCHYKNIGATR

[4] = biological target: T4, Muscarine M3 (GPCR-A-MA-ACH M3) (Cavia porcellus, UniProt H0W1Z3); test: Muscarine M3 functional assay, isolated organ (ileum), agonist and antagonist mode; set-up: species or system Guinea Pig; details: for EC50: read-out: Cell funct. Musc. M3 Agonism pEC50 (converted)
T4 construct: from tissue; host or cells: guinea pig ileum
T4 sequence (H0W1Z3 1-590): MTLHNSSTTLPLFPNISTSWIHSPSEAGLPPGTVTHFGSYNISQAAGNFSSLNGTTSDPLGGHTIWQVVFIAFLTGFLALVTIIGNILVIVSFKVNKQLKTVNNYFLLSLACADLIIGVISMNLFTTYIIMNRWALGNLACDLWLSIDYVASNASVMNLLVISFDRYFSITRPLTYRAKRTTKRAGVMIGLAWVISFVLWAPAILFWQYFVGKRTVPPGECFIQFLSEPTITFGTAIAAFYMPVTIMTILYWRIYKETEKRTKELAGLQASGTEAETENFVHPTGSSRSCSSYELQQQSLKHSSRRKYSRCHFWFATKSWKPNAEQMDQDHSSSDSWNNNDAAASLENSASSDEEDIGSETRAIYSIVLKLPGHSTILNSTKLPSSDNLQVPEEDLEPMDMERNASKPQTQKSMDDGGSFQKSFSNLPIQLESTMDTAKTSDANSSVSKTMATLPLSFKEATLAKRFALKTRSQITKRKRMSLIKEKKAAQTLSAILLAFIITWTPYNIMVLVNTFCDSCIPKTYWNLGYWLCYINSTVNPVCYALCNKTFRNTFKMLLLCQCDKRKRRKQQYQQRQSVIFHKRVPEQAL

[5] = biological target: T1, Muscarine M1 (GPCR-A-MA-ACH M1); test: Muscarine M1 cell-based functional assay (CHO cells, Ca2+ - FLIPR Fluorimetry); details: human M1, CHO cells; agonist mode, reference agonist acetylcholine; read-out: Cell funct. Musc. M1 Agonism pEC50 (converted)
[6] = biological target: T5, Muscarine M4 (GPCR-A-MA-ACH M4) (Homo sapiens, UniProt P08173); test: Muscarine M4 receptor binding, 3H-4DAMP; details: human M4, CHO cells, ligand 0.2 nM, 60 min/22° C., read-out: RB Musc. M4 3H-DAMP pKi (converted)
T5 construct: expressed in transfected cells; host or cells: CHO cells
T5 sequence (P08173 1-479): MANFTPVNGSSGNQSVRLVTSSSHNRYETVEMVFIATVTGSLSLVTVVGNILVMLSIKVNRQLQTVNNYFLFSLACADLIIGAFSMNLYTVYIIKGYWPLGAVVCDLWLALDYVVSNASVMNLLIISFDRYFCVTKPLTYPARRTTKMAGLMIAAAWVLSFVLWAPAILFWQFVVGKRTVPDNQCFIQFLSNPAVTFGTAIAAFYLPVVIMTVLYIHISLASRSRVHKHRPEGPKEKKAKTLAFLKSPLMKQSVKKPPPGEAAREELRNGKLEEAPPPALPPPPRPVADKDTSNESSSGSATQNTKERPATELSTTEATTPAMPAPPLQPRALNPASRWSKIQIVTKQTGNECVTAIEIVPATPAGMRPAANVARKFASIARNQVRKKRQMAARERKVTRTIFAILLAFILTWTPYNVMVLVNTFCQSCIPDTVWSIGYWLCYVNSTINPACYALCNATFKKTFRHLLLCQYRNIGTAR
Method in brief: as §1

[7] = read-out: Cell funct. Musc. M2 Antagonism pA2 (converted)

Row | Ki [1] | Ki [2] | EC50 [3] | Kb [3, 7] | Kb [4] | EC50 [4] | EC50 [5] | Ki [6] | Kb [3] | SMILES
1 | 3980 nM | 5010 nM | > 1000 nM | > 1000 nM | > 1000 nM | > 1000 nM | 39.8 nM | 501 nM |  | C=CCCCOc1c[nH]nc1C1=CCCN(C)C1 [Compound 33F, 3-(4-Pent-4-enyloxy-1H-pyrazol-3-yl)-1,2,5,6-tetrahydro-1-methylpyridine]
2 | 1580 nM | 3980 nM | > 1000 nM | > 1000 nM | > 1000 nM | > 1000 nM | 25.1 nM | 200 nM |  | CCCCCOc1c[nH]nc1C1=CCCN(C)C1 [Compound 33G, 3-(4-Pentyloxy-1H-pyrazol-3-yl)-1,2,5,6-tetrahydro-1-methylpyridine]

More lines, now with the values behind:

Row | SMILES | Ki [1] | Ki [2] | EC50 [3] | Kb [3, 7] | Kb [4] | EC50 [4] | EC50 [5] | Ki [6] | Kb [3]
3 | CN1CCC=C(c2n[nH]cc2SCCC=C(F)F)C1 [Compound 22J, 3-[4-(4,4-Difluoro-but-3enylsulfanyl)-1H-pyrazol-3-yl]-1,2,5,6-tetrahydro-1-methylpyridine] | 631 nM | 3160 nM | > 1000 nM | > 1000 nM | > 1000 nM | > 1000 nM | 39.8 nM | 251 nM | 
4 | C=CCCCSc1c[nH]nc1C1=CCCN(C)C1 [Compound 22L] | 794 nM | 2000 nM | > 1000 nM | > 1000 nM | > 1000 nM | > 1000 nM | 10 nM | 100 nM | 
5 | CCOCCSc1c[nH]nc1C1=CCCN(C)C1 [Compound 22O, 3-[4-(2-Ethoxy-ethylsulfanyl)-1H-pyrazol-3-yl]-1,2,5,6-tetrahydro-1-methylpyridine] | 7940 nM | 10000 nM | > 1000 nM |  | > 1000 nM | > 1000 nM | 31.6 nM | 794 nM | 20 nM
